Earlier results, collected in patent US20180035685A1, “ANTIMICROBIAL COMPOSITIONS” (priority 2015, published 2018).

Tests used:
[1] = stored in cold; applied at 300 ppm
[2] = tested on: Listeria; settings: pure form; Mandalari et al. (2007)

| SMILES | Antimicrobial effect on raw beef MAP meat [1] | Effect on Listerial growth in vitro [2] |
| --- | --- | --- |
| O=c1oc2c(O)c(O)cc3c(=O)oc4c(O)c(O)cc1c4c23 [ellagic acid] | no antimicrobial effect | – |
| COc1ccc([C@@H]2CC(=O)c3c(O)cc(O[C@@H]4O[C@H](CO)[C@@H](O)[C@H](O)[C@H]4O[C@@H]4O[C@@H](C)[C@H](O)[C@@H](O)[C@H]4O)cc3O2)cc1O [neohesperidin] | – | no effect on Listerial growth |
